# Results reported in US8357385B2, “Combination therapy for the treatment of bacterial infections” (Interface Biologics Inc., priority 2008, dated 2013).
# Like-named read-outs stand apart in the source and are kept apart here. Peptide text beside a SMILES is read from it.
# Experiments:
# Type in all cases: cell-based
# [1] = system: S. Aureus; assay: microbe, parasite or virus in culture
# Method: (§1) Broth dilution method was used to measure quantitatively the in vitro activity of an antimicrobial agent against a given bacterial isolate. First, a series of tubes/wells were prepared with a broth medium to which various concentrations of the antimicrobial agents were added. The tubes/wells were then inoculated with standardized suspension of the test organism. After overnight incubation at 35±2° C., the tests were examined and the minimum inhibitory concentration (MIC) was determined. The procedures were performed under aseptic conditions. Stock culture: Stock cultures were maintained in Mueller Hinton Broth containing 15% Glycerol and stored at −80° C. Stock cultures were sub-cultured on to Mueller Hinton Agar (MHA), and incubated overnight at 37° C. […] Washing of cells: the cells were washed with PBS (pH 7.1) by centrifuging at 3000 rpm for 10 minutes. A cell suspension in Mueller Hinton broth (MHB) having a turbidity equivalent to a 0.5 McFarland turbidity standard was prepared using a Beckman Coulter DU 800 Spectrophotometer measuring at 600 nm wavelength. This is a suspension containing approximately […] of microbe. The suspension was diluted in MH broth so that, after dilution, the tube contained approximately 5×10^6 CFU/mL, and after inoculation, each well contains approximately 5×10^5 CFU/mL. Broth dilution procedure: small volumes of MH broth dispensed in sterile, polystyrene, non-pyrogenic tissue culture plates, 96 well, flat bottoms with low evaporation lid were prepared (each well contained 0.1 mL of MH broth) followed by the final two fold dilutions of antimicrobial agent dispensed volumetrically into the broth. […] Inoculation: each well of a microdilution plate was inoculated. The purity of the inoculum suspension was checked by sub-culturing an aliquot on to MH agar plate. Colony counts on inoculum suspensions were performed periodically, to ensure that the final inoculum concentration was approximately […]. […] To prevent drying, each plate was sealed with parafilm and the plates were kept in a moist chamber while incubating at 37° C. overnight, in a shaking incubator. Determining MIC endpoints: The MIC is defined as the lowest concentration of an antimicrobial that will inhibit growth of a microorganism. The in plate dilution method the endpoint is detected by the unaided eye.
# [2] = system: P. Auregenosa; assay: organism not typed
# Method: as §1
# [3] = system: E. coli; assay: microbe, parasite or virus in culture
# Method: as §1
# [4] = system: C. Albicans; assay: Broth dilution MIC against C. Albicans; conditions: Candida albicans, Monotherapy, overnight incubation
# Method: Broth dilution method was used to measure quantitatively the in vitro activity of an antimicrobial agent against a given bacterial isolate. First, a series of tubes/wells were prepared with a broth medium to which various concentrations of the antimicrobial agents were added. The tubes/wells were then inoculated with standardized suspension of the test organism. After overnight incubation at 35±2° C., the tests were examined and the minimum inhibitory concentration (MIC) was determined. The procedures were performed under aseptic conditions. Stock culture: Stock cultures were maintained in Mueller Hinton Broth containing 15% Glycerol and stored at −80° C. Stock cultures were sub-cultured on to Mueller Hinton Agar (MHA), and incubated overnight at 37° C. […] Washing of cells: the cells were washed with PBS (pH 7.1) by centrifuging at 3000 rpm for 10 minutes. A cell suspension in Mueller Hinton broth (MHB) having a turbidity equivalent to a 0.5 McFarland turbidity standard was prepared using a Beckman Coulter DU 800 Spectrophotometer measuring at 600 nm wavelength. This is a suspension containing approximately […] of microbe. The suspension was diluted in MH broth so that, after dilution, the tube contained approximately 5×10^6 CFU/mL, and after inoculation, each well contains approximately 5×10^5 CFU/mL. Broth dilution procedure: small volumes of MH broth dispensed in sterile, polystyrene, non-pyrogenic tissue culture plates, 96 well, flat bottoms with low evaporation lid were prepared (each well contained 0.1 mL of MH broth) followed by the final two fold dilutions of antimicrobial agent dispensed volumetrically into the broth. […] Inoculation: each well of a microdilution plate was inoculated. The purity of the inoculum suspension was checked by sub-culturing an aliquot on to MH agar plate. Colony counts on inoculum suspensions were performed periodically, to ensure that the final inoculum concentration was approximately 5×10^6 CFU/mL. […] The in plate dilution method the endpoint is detected by the unaided eye.
# [5] = Staphylococcus aureus, Monotherapy, S. Aureus, broth dilution, overnight incubation, read-out: MIC
# [6] = Monotherapy, P. Auregenosa, broth dilution, overnight incubation, read-out: MIC
# [7] = Escherichia coli, Monotherapy, E. coli, broth dilution, overnight incubation, read-out: MIC
# [8] = Monotherapy, E. coli, broth dilution, overnight incubation
# [9] = Monotherapy, P. Auregenosa, broth dilution, overnight incubation
compound,measurement,setting,value
CC1(C)S[C@@H]2[C@H](NC(=O)[C@H](N)c3ccc(O)cc3)C(=O)N2[C@H]1C(=O)O [Amoxicillin],MIC,[1]; [5],31.2 to 62.5 µg/mL
same,MIC,[2]; [6],250 to 500 µg/mL
C[C@H]1[C@H](NC(=O)/C(=N\OC(C)(C)C(=O)O)c2csc(N)n2)C(=O)N1S(=O)(=O)O [Aztreonam],MIC,[1]; [5],625 to 1250 µg/mL
same,MIC,[3]; [7],0.078 to 0.097 µg/mL
same,MIC,[2]; [6],15.6 to 19 µg/mL
"CC[C@H](C)[C@H](N)C1=N[C@H](C(=O)N[C@@H](CC(C)C)C(=O)N[C@H](CCC(=O)O)C(=O)N[C@H](C(=O)N[C@H]2CCCCNC(=O)[C@H](CC(N)=O)NC(=O)[C@@H](CC(=O)O)NC(=O)[C@H](Cc3cnc[nH]3)NC(=O)[C@@H](Cc3ccccc3)NC(=O)[C@H]([C@@H](C)CC)NC(=O)[C@@H](CCCN)NC2=O)[C@@H](C)CC)CS1 [Bacitracin] (HELM PEPTIDE1{[CC[C@H](C)[C@H](N)C1=N[C@H](C(=O)[*:2])CS1].L.[dE].I.K.[NCCC[C@@H](N[*:1])C(=O)[*:2]].I.[dF].H.[dD].N}$PEPTIDE1,PEPTIDE1,5:R3-11:R2$$$V2.0)",MIC,[1],35 to 40 µg/mL
same,MIC,[3],1000 to 1250 µg/mL
same,MIC,[2],4000 to 5000 µg/mL
[H]/N=C(\N/C(=N/[H])NCCCCCCNC(=N)NC(=N)Nc1ccc(Cl)cc1)Nc1ccc(Cl)cc1 [Chlorhexidine],MIC,[1]; [5],3.12 to 4 µg/mL
same,MIC,[3]; [7],3.13 to 4 µg/mL
same,MIC,[4],3.12 to 4 µg/mL
same,MIC,[2]; [6],4 to 5 µg/mL
O=C(O)c1cn(C2CC2)c2cc(N3CCNCC3)c(F)cc2c1=O [Ciprofloxacin],MIC,[1]; [5],0.156 to 0.2 µg/mL
same,MIC,[3]; [7],0.005 to 0.0078 µg/mL
same,MIC,[4],> 2.5 µg/mL
same,MIC,[2]; [6],0.156 to 0.25 µg/mL
Clc1ccc(COC(Cn2ccnc2)c2ccc(Cl)cc2Cl)c(Cl)c1 (stereo not drawn) [Miconazole],MIC,[1]; [5],45 to 90 µg/mL
same,MIC,[4],1.4 to 2.8 µg/mL
CN[C@H](CC(C)C)C(=O)N[C@H]1C(=O)N[C@@H](CC(N)=O)C(=O)N[C@H]2C(=O)N[C@H]3C(=O)N[C@H](C(=O)N[C@H](C(=O)O)c4cc(O)cc(O)c4-c4cc3ccc4O)[C@H](O)c3ccc(c(Cl)c3)Oc3cc2cc(c3O[C@@H]2O[C@H](CO)[C@@H](O)[C@H](O)[C@H]2O[C@H]2C[C@](C)(N)[C@H](O)[C@H](C)O2)Oc2ccc(cc2Cl)[C@H]1O [Vancomycin],MIC,[3]; Escherichia coli,190 to 380 µg/mL
Gentamicin,MIC,[3]; [8],1.25 to 2.5 µg/mL
same,MIC,[2]; [9],0.625 to 1.25 µg/mL
Polymixin B,MIC,"[1]; Monotherapy, S. Aureus, broth dilution, overnight incubation",62.5 to 100.0 µg/mL
same,MIC,[3]; [8],7.8 to 10 µg/mL
same,MIC,[2]; [9],3.125 to 5.0 µg/mL
